Data: ChEMBL document CHEMBL4184321, “Fragment-Based Drug Discovery of Potent Protein Kinase C Iota Inhibitors” (J Med Chem, 2018)
pIC50: −log10 of the molar value. Values after ≈ are worked out from the molar mass of the structure shown.

What was measured:
[1] = biological target: T1, Protein kinase C iota type (Homo sapiens, UniProt P41743); experiment: Inhibition of full-length N-terminal GST-fused human PKC-iota expressed in baculovirus expression system using (5FAM) RFARKGSLRQKNV as substrate after 60 mins by caliper assay
T1 sequence (P41743 whole entry): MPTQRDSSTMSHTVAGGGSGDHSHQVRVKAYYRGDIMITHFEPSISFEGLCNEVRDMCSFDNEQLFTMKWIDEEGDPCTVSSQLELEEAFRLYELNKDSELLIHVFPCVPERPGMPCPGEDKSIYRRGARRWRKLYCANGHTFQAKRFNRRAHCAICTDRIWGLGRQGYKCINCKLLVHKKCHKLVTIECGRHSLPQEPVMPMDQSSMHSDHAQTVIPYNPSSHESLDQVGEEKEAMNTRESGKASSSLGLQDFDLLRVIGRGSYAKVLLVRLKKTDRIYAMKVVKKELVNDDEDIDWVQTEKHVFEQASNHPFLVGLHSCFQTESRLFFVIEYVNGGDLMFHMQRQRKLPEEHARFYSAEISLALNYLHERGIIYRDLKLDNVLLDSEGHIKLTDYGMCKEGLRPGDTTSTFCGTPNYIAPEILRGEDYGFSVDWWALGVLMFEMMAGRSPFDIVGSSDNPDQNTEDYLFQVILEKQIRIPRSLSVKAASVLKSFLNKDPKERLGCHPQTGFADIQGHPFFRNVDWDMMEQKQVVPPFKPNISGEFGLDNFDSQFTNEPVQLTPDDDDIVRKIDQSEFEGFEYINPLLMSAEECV

[2] = biological target: Protein kinase C alpha type (Homo sapiens, UniProt P17252); experiment: Inhibition of full-length N-terminal GST-fused human PKC-alpha expressed in baculovirus expression system using (5FAM) RFARKGSLRQKNV as substrate after 60 mins by caliper assay
[3] = biological target: T2, Protein kinase C epsilon type (Homo sapiens, UniProt Q02156); experiment: Inhibition of full-length N-terminal GST-fused human PKC-epsilon expressed in baculovirus expression system using (5FAM) RFARKGSLRQKNV as substrate after 60 mins by caliper assay
T2 sequence (Q02156 whole entry): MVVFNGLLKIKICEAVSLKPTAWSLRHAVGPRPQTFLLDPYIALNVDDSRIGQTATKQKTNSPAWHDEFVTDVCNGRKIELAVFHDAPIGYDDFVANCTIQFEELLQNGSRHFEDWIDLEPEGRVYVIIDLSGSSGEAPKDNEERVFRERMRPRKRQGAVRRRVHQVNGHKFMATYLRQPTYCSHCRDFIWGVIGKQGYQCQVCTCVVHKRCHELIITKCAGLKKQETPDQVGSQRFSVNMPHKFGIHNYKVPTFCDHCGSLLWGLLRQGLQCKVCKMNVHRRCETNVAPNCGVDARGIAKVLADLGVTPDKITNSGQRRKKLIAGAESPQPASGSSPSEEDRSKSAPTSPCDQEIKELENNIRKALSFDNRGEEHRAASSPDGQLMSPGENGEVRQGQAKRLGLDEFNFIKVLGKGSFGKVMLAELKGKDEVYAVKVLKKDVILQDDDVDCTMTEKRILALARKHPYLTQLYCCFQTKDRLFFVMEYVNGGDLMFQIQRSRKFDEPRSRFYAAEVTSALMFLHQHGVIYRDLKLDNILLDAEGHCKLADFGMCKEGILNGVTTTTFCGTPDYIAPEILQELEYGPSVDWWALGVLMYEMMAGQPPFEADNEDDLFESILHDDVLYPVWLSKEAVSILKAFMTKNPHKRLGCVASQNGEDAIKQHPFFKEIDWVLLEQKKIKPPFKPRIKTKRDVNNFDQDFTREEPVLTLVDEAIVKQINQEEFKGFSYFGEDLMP

[4] = test system: Huh-7; experiment: Antiproliferative activity against human HuH7 cells after 72 hrs by CellTiter-Glo assay; assay type: functional; conditions: Huh-7, 72 h
[5] = test system: HCCLM3; experiment: Antiproliferative activity against human HCCLM3 cells after 72 hrs by CellTiter-Glo assay; assay type: functional; conditions: HCCLM3, 72 h
[6] = Solubility of the compound at pH 4; assay type: physicochemical; conditions: buffer
[7] = Solubility of the compound at pH 7.4; assay type: physicochemical; conditions: buffer
[8] = biological target: Cytochrome P450 2D6 (Homo sapiens, UniProt P10635); experiment: Inhibition of CYP2D6 (unknown origin); assay type: ADME
[9] = Clearance in mouse liver microsomes; assay type: ADME, microsome; conditions: read-out: CLH
[10] = Clearance in human liver microsomes; assay type: ADME, microsome; conditions: read-out: CLH
[11] = Half life in mouse liver microsomes; assay type: ADME, microsome
[12] = Half life in human liver microsomes; assay type: ADME, microsome
[13] = Permeability across apical to basolateral side in human Caco2 cells; assay type: ADME, cell-based; conditions: Caco-2, read-out: permeability

Cytochrome P450 2D6, sequence (P10635 whole entry): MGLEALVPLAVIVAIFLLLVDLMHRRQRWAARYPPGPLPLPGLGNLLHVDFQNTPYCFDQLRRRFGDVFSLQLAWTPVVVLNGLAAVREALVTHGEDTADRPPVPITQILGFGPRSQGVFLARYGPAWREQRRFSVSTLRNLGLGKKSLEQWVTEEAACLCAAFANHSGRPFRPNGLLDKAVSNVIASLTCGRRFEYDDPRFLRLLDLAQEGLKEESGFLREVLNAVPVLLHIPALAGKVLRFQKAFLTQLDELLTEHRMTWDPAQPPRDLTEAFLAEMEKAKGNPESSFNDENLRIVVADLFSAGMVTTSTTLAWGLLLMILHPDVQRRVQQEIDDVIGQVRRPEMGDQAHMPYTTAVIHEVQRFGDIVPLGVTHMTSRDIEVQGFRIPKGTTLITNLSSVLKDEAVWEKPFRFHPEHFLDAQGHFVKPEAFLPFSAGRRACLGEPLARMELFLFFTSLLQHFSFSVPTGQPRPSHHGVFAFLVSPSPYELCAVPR

## Nc1ccc2[nH]cnc2c1
[1]
  pIC50: 3.14

## O=C1CCCc2cc(O)ccc21
[1]
  pIC50: 2.78

## COc1cc2c(cc1-c1cnn3ccc(-c4ccnc5[nH]ccc45)cc13)CNCC2
[2]
  pIC50: 7.15

## COc1ccc2c(c1)C(=O)N(c1cnn3ccc(-c4ccnc5[nH]ccc45)cc13)C2
[2]
  pIC50: 5.60

## Clc1ccnc2[nH]ccc12
[1]
  pIC50: 2.89

## COc1cc2c(cc1-c1cnc3ccc(-c4ccnc5[nH]ccc45)cn13)CNC2
[2]
  pIC50: 6.47

## COc1cc2c(cc1-c1cnn3ccc(-c4ccnc5[nH]ccc45)cc13)CN(C)C2
[2]
  pIC50: 6.85

## Brc1ccnc2[nH]ccc12
[1]
  pIC50: 3.21

## COc1cc2c(cc1-n1cnc3cnc(-c4ccnc5[nH]ccc45)cc31)CNC2
[2]
  pIC50: 6.60

## COc1cc2c(cc1-c1cnn3ccc(-c4ccnc5[nH]ccc45)cc13)CNC(C)C2 (centres undefined)
[2]
  pIC50: 7.19

## COc1cc2c(cc1-c1cnn3ccc(-c4ccnc5[nH]ccc45)nc13)CNC2
[2]
  pIC50: 6.46

## COc1cc2c(cc1-c1cnn3ccc(-c4ccnc5[nH]ccc45)cc13)CNC(CF)C2 (centres undefined)
[1]
  pIC50: 8.57
[2]
  pIC50: 7.35
[3]
  pIC50: 7.35
[4]
  GI50: 3.3 µM
[5]
  GI50: 6.6 µM

## COc1cc2c(cc1-n1cnc3ccc(-c4ccnc5[nH]ccc45)nc31)CNC2
[2]
  pIC50: 6.37

## COc1cc2c(cc1-n1cnc3ccc(-c4ccnc5[nH]ccc45)cc31)CNC2
[1]
  pIC50: 7.32
[2]
  pIC50: 6.55
[3]
  pIC50: 6.25
[4]
  GI50: 9 µM
[6]
  solubility: 790 µg/mL (≈ 2070 µM)
[7]
  solubility: 1.3 µg/mL (≈ 3.41 µM)
[8]
  pIC50: 4.62
[9]
  microsomal CLint: 21.5 µL/min/mg
[10]
  microsomal CLint: 10 µL/min/mg
[11]
  half-life: 32 min
[12]
  half-life: 67 min
[13]
  Papp A→B: 0.57 ×10⁻⁶ cm/s

## COc1cc2c(cc1-c1cnc3ccc(-c4ccnc5[nH]ccc45)nn13)CNC2
[2]
  pIC50: 5.85

## COc1cc2c(cc1-c1cnn3ccc(-c4ccnc5[nH]ccc45)cc13)CN(C(C)=O)C2
[2]
  pIC50: 6.42

## Cn1ccc2cc(N)ccc21
[1]
  pIC50: 2.88

## COc1cc2c(cc1-c1cnn3ccc(-c4ccnc5[nH]ccc45)cc13)CNC2
[2]
  pIC50: 6.96

## O=c1[nH]ncc2ccccc12 [PHTHALAZINONE]
[1]
  pIC50: 3.23
